This is an account of results in ChEMBL document CHEMBL1275506, “Expanded-spectrum beta-lactamase PER-1 in an environmental Aeromonas media isolate from Switzerland” (2008).

Values after ≈ are worked out from the molar mass of the structure shown.

Type in all cases: functional
In assay [1] the test system is Escherichia coli. Briefly: Antibacterial activity against Escherichia coli J53 by Etest.
Assay [2] deals with Aeromonas sp. Kind of assay: Antibacterial activity against Aeromonas sp. isolate A72 by Etest.
For assay [3], the system named is Escherichia coli. Kind of assay: Antibacterial activity against Escherichia coli J53 harboring plasmid pAM carrying beta-lactamase PER-1 by Etest.
Assay [4] concerns Escherichia coli. Kind of assay: Antibacterial activity against Escherichia coli J53 harboring plasmid pAM carrying beta-lactamase PER-1 by Etest in presence of clavulanic acid.
The subject of assay [5] is Escherichia coli. Kind of assay: Antibacterial activity against Escherichia coli J53 by Etest in presence of clavulanic acid.
The test system of assay [6] is Aeromonas sp. Briefly: Antibacterial activity against Aeromonas sp. isolate A72 by Etest in presence of clavulanic acid.

For `CC(C)(O/N=C(\C(=O)N[C@@H]1C(=O)N2C(C(=O)[O-])=C(C[n+]3ccccc3)CS[C@H]12)c1csc(N)n1)C(=O)O` [CEFTAZIDIME], the minimum inhibitory concentration (MIC) in assay [1] is 0.06 µg/mL (≈ 0.11 µM); in assay [2], greater than 256 µg/mL; in assay [3], greater than 256 µg/mL.
As to `CC(=O)OCC1=C(C(=O)O)N2C(=O)[C@@H](NC(=O)Cc3cccs3)[C@H]2SC1` [CEPHALOTHIN], the MIC in assay [1] is 8 µg/mL (≈ 20.2 µM); in assay [2], greater than 64 µg/mL; in assay [3] it was greater than 64 µg/mL.
On to `CC1(C)S[C@@H]2[C@H](NC(=O)[C@H](N)c3ccc(O)cc3)C(=O)N2[C@H]1C(=O)O` [AMOXICILLIN], for which the MIC in assay [1] is 4 µg/mL (≈ 10.9 µM); in assay [4], 4 µg/mL; in assay [5], 4 µg/mL; in assay [2] it was greater than 256 µg/mL; in assay [3], greater than 256 µg/mL; in assay [6] it was 8 µg/mL.
Take `CO[C@@]1(NC(=O)Cc2cccs2)C(=O)N2C(C(=O)O)=C(COC(N)=O)CS[C@@H]21` [CEFOXITIN]: the MIC in assay [1], in assay [2] and in assay [3] was 2 µg/mL (≈ 4.68 µM) in each case.
On to `C[C@@H](O)[C@H]1C(=O)N2C(C(=O)O)=C(SCCNC=N)C[C@H]12` [IMIPENEM ANHYDROUS], for which the MIC in assay [2] and in assay [3] was 0.25 µg/mL (≈ 0.835 µM) each time.
In the case of `CO/N=C(\C(=O)N[C@@H]1C(=O)N2C(C(=O)O)=C(COC(C)=O)CS[C@H]12)c1csc(N)n1` [CEFOTAXIME], the MIC in assay [1] is 0.06 µg/mL (≈ 0.132 µM); in assay [2], greater than 32 µg/mL; in assay [3], greater than 32 µg/mL.
As for `CO/N=C(\C(=O)N[C@@H]1C(=O)N2C(C(=O)[O-])=C(C[N+]3(C)CCCC3)CS[C@H]12)c1csc(N)n1` [CEFEPIME], the minimal inhibitory concentration (MIC) turned out to be 4 µg/mL (≈ 8.32 µM) in assay [2] and 8 µg/mL (≈ 16.6 µM) in assay [3].
As for `CC1(C)S[C@@H]2[C@H](NC(=O)[C@H](C(=O)O)c3ccsc3)C(=O)N2[C@H]1C(=O)O` [TICARCILLIN], the MIC was 4 µg/mL (≈ 10.4 µM) in assay [1]; 8 µg/mL in assay [4]; 4 µg/mL in assay [5]; greater than 256 µg/mL in assay [2]; greater than 256 µg/mL in assay [3]; 128 µg/mL in assay [6].
